{"source": "patent US20080125432A1", "about": "(Devgen NV, priority 2004, published 2008)", "target": "T1, INa (SCN5a) (Homo sapiens, UniProt Q14524)", "T1 construct": "endogenous in cells; host or cells: freshly isolated human atrial myocytes (bypass-surgery patients)", "T1 sequence (Q14524 whole entry)": "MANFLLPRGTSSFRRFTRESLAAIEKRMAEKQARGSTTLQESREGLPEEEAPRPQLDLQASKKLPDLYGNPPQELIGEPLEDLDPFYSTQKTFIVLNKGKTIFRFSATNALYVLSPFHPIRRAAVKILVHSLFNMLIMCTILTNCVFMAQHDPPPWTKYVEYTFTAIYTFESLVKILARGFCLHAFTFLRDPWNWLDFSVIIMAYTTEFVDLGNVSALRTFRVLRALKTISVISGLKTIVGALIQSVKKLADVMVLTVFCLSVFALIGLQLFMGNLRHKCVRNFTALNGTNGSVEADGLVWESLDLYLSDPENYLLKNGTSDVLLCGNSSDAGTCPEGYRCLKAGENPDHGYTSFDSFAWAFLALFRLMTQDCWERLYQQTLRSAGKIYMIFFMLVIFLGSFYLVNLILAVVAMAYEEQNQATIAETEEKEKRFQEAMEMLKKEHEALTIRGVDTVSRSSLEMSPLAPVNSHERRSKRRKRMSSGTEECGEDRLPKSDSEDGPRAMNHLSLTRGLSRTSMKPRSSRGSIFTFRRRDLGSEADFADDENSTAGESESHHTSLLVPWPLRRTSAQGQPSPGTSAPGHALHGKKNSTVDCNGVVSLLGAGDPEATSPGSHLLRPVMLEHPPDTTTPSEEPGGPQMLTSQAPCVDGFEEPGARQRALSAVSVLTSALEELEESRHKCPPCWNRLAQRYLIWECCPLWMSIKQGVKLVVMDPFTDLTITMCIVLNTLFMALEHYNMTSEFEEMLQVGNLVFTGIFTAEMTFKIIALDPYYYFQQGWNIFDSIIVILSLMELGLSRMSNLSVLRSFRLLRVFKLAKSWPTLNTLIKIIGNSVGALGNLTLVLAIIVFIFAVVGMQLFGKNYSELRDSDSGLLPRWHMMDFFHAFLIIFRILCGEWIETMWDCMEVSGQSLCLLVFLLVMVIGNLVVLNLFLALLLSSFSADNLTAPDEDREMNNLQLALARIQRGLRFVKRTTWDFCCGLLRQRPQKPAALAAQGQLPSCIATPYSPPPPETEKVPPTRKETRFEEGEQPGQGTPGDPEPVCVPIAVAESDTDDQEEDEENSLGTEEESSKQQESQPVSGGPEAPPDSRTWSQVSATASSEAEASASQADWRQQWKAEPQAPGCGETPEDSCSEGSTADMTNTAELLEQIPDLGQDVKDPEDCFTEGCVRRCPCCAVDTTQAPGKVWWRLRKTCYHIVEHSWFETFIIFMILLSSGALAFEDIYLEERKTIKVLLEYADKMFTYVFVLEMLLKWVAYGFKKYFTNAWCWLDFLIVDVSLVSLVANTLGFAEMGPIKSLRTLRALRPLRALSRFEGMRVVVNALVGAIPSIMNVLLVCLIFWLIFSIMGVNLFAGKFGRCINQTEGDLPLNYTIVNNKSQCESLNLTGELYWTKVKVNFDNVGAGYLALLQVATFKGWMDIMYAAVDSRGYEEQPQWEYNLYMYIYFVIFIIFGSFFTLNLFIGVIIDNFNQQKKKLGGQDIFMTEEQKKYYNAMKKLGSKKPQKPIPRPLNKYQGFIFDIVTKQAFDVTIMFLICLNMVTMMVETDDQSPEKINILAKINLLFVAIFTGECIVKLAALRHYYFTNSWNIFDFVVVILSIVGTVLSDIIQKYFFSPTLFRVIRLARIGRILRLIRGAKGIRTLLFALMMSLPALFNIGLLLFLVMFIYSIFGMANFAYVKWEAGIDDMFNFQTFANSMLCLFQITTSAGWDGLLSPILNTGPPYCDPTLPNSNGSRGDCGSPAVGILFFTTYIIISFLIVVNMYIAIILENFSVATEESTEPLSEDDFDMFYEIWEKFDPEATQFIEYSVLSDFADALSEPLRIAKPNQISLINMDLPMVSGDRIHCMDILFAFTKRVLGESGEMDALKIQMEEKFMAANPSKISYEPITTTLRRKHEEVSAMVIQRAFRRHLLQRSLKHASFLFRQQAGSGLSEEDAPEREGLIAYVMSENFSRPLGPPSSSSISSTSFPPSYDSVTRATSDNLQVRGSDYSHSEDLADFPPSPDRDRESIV", "assay": "Whole-cell patch clamp in human atrial myocytes: INa", "type": "cell-based", "conditions": "n = 3 cells", "protocol": "The blocking profile of the compounds of the invention is determined on the following channels of the human atrial myocytes: INa, Ito, Isus and IK1 channel currents.\nHuman atrial myocytes: Myocytes were prepared from specimens with grossly normal anatomical aspect, excised from hearts of patients with normal P-wave electrocardiogram, undergoing bypass surgery. Human atrial sample were obtained following approval by the ethical committee. Atrial tissue samples were quickly immersed in a cardioplegic solution (in mM: 50 KH2PO4, 8 MgSO4, 10 NaHCO3, 5 adenosine, 25 taurine, 140 glucose, and 100 mannitol, titrated to a pH of 7.4 and bubbled with 100% O2 at 0-4° C.) and rapidly delivered to the laboratory. The tissue was then minced onto 0.5-1 mm^2 chunks within 30 min after the excision procedure and transferred to a 50 ml conical tube containing wash solution deprived of Ca^2+ (in mM: 137 NaCl, KH2PO4, 1 MgSO4, 10 taurine, 10 glucose, 5 HEPES, and 100 μmol/L (µM) EGTA; pH=7.4, room temperature 22-24° C.). […]\nExperiments were performed at room temperature (20-25° C.) for INa and at 32-34° C. for Ito, Isus, IK1. Currents were measured using the whole-cell variant of the patch clamp method. […]\nRaw data and mean ±SEM are given. […] This is measured as current reduction after a steady-state effect has been reached in the presence of drug relative to current amplitude before drug was introduced (control). […]", "data": [{"smiles": "COc1ccccc1Nc1nc(C)c(C(=O)N[C@H]2CCC[C@@H]2OCc2ccccc2)s1", "note": "[Compound 68, 2-(2-methoxy-phenylamino)-4-methyl-thiazole-5-carboxylic acid (1S,2S)-2-(benzyloxycyclopent-1-yl) amide]", "values": [{"measurement": "Block at 10 μM in %: INa (SCN5a)", "value": "0 ± 0.5", "unit": "%"}]}]}
